Data reported in US20150241429A1, “IRHOM2 INHIBITION FOR THE TREATMENT OF COMPLEMENT MEDIATED DISORDERS” (HOSPITAL FOR SPECIAL SURGERY, priority 2012, published 2015).

Columns and labels:
human monocytes = assay: C5a-stimulated oxidative burst (ROS release) in human monocytes; assay type: cell-based; conditions: C5a in presence or absence of Marimastat, ROS by FACS (DHR)
Experimental: (§1) FIG. 5. (A) TACE-mediated cleavage of CD62L on the cell surface of freshly isolated human neutrophils (representative of 2 experiments). Surface expression of CD62L was assessed by flow cytometry following stimulation with 1 μg/mL of C5a or 25 ng/mL PMA for 20 min in the presence or absence of Marimastat (MM). (B) Quantification of total sheep red blood cells phagocytosed by wild type or Tace−/− bone marrow macrophages. Opsonized sheep red blood cells were stained with CFSE and total fluorescence intensity (TFI) was measured by flow cytometry, n=3, mean+/−SEM; * indicates p>0.05. (C) Release of reactive oxygen species by human monocytes when stimulated with C5a in the presence or absence of Marimastat. ROS was quantified by FACS by measuring the mean intensity of the ROS-reactive dye DHR. […] The Fc domains of pathogenic IgG initiate tissue damage by binding FcγR on effector cells and by activating complement, and FcγRs are critical for the pathogenesis of inflammatory arthritis in the K/B×N serum model (Ji et al., 2002a).

macrophages = assay: Phagocytosis of IgG-opsonized red blood cells by macrophages; assay type: cell-based; conditions: inhibition of TACE with MM
Experimental: as §1, with “(B) Quantification of total sheep red blood cells phagocytosed by wild type or Tace−/− bone marrow macrophages.” left out

iRhom2 = iRhom2 expression in ex vivo cultures of RA synovial macrophages; assay type: cell-based, human; conditions: RA synovial macrophages incubated overnight ± etanercept, n=8
Experimental: FIG. 2. Production of TNFα and other pro-inflammatory molecules is enhanced by TNFα shedding. (A) Quantification of mRNA levels of the indicated genes by qPCR following 30 min pre-treatment with 10 μg/ml etanercept and stimulation with C5a (representative of 3 experiments). (B) qPCR of iRhom2 mRNA in human monocytes treated for the indicated time periods with hTNFα (representative of 4 experiments). (C) Relative iRhom2 expression in RA synovial macrophages compared to macrophages from normal control patients, n=7 for control, and n=8 for RA patients (Nonparametric Mann-Whitney U test) (Gordon et al., 2012). (D) iRhom2 expression in synovial macrophages from RA patients following incubation overnight±etanercept, shown as percent of expression in freshly isolated cells, n=8. […] (F) Decreased TNFα release from C5a, IC and IC+C5a-stimulated cells treated with iR2 siRNA or TACE siRNA compared to untreated controls (representative of 3 independent experiments, mean±s.d. of samples stimulated in duplicates). *: p<0.05.
This, in turn, would also reduce the production of TNFα-dependent cytokines and of iRhom2, a crucial positive regulator of TACE (Adrain et al., 2012; McIlwain et al., 2012; Siggs et al., 2012).

| Molecule | C5a-stimulated oxidative burst (human monocytes) | opsonization (internalization of IgG-opsonized red blood cells) (macrophages) | iRhom2 expression (iRhom2) |
| --- | --- | --- | --- |
| CNC(=O)[C@@H](NC(=O)[C@H](CC(C)C)[C@H](O)C(=O)NO)C(C)(C)C [MM, Marimastat] | did not alter | did not alter |  |
| etanercept |  |  | substantially reduced |
